Experimental data from patent publication US10597388B2, “Pyridazinone herbicides” (FMC CORPORATION, priority 2014, dated 2020).

Columns and labels:
Type in all cases: in vivo
[1] = tested on: blackgrass (Alopecurus myosuroides); assay: Test A greenhouse herbicide test, postemergence
In short: (§1)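 Pot-grown plants (loam soil/sand blend), 2–10 cm tall at the one- to two-leaf stage, received postemergence sprays of formulated test chemical. After about 10 d in the greenhouse, injury was rated visually against untreated controls on a 0 (no effect) to 100 (complete control) scale.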

[2] = tested on: galium (catchweed bedstraw, Galium aparine); assay: Test A greenhouse herbicide test, postemergence
In short: as §1

[3] = tested on: kochia (Kochia scoparia); assay: Test C greenhouse herbicide test, postemergence
In short: (§2)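 Plants grown in potting mix of peat moss, vermiculite, wetting agent and starter nutrients were sprayed postemergence at 2 to 18 cm height (1- to 4-leaf stage). After 13 to 15 d in the greenhouse, injury was visually rated against untreated controls on a 0–100 scale (0 no effect, 100 complete control).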

[4] = tested on: oat, wild (wild oat, Avena fatua); assay: Test C greenhouse herbicide test, postemergence
In short: as §2

[5] = tested on: barnyardgrass (Echinochloa crus-galli); assay: Test C greenhouse herbicide test, pre- and postemergence
Text: (§3) Seeds of plant species selected from blackgrass (Alopecurus myosuroides), ryegrass, Italian (Italian ryegrass, Lolium multiflorum), wheat (winter wheat, Triticum aestivum), galium (catchweed bedstraw, Galium aparine), corn (Zea mays), large crabgrass, large (large crabgrass, Digitaria sanguinalis), foxtail, giant (giant foxtail, Setaria faberii), johnsongrass (Sorghum halepense), lambsquarters (Chenopodium album), morningglory (Ipomoea coccinea), nutsedge, yellow (yellow nutsedge, Cyperus esculentus), pigweed (Amaranthus retroflexus), ragweed (common ragweed, Ambrosia elatior), soybean (Glycine max), barnyardgrass (Echinochloa crus-galli), oilseed rape (Brassica napus), waterhemp (common waterhemp, Amaranthus rudis), and velvetleaf (Abutilon theophrasti) were planted into a blend of loam soil and sand and treated preemergence with test chemicals formulated in a non-phytotoxic solvent mixture which included a surfactant.
(§4) At the same time, plants selected from these crop and weed species and also chickweed (common chickweed, Stellaria media), kochia (Kochia scoparia), and oat, wild (wild oat, Avena fatua), were planted in pots containing Redi-Earth® planting medium (Scotts Company, 14111 Scottslawn Road, Marysville, Ohio 43041) comprising spaghnum peat moss, vermiculite, wetting agent and starter nutrients and treated with postemergence applications of test chemicals formulated in the same manner. Plants ranged in height from 2 to 18 cm (1- to 4-leaf stage) for postemergence treatments. Treated plants and controls were maintained in a greenhouse for 13 to 15 d, after which time all species were compared to controls and visually evaluated. Plant response ratings, summarized in Table C, are based on a scale of 0 to 100 where 0 is no effect and 100 is complete control. A dash (-) response means no test result.

[6] = tested on: blackgrass (Alopecurus myosuroides); assay: as above
Text: as §3, §4

[7] = tested on: ragweed (common ragweed, Ambrosia elatior); assay: as above
Text: as §3, §4

[8] = tested on: velvetleaf (Abutilon theophrasti); assay: as above
Text: as §3, §4

[9] = tested on: ryegrass, Italian (Italian ryegrass, Lolium multiflorum); assay: as above
Text: as §3, §4

[10] = tested on: pigweed (Amaranthus retroflexus); assay: as above
Text: as §3, §4

[11] = tested on: galium (catchweed bedstraw, Galium aparine); assay: as above
Text: as §3, §4

[12] = tested on: nutsedge, yellow (yellow nutsedge, Cyperus esculentus); assay: as above
Text: as §3, §4

[13] = tested on: soybean (Glycine max); assay: as above
Text: as §3, §4

[14] = 125 g ai/ha, 0 to 100 scale where 0 is no effect and 100 is complete control
[15] = 500 g ai/ha, visual rating after approx. 10 d, 0 to 100 scale (0 no effect, 100 complete control)
[16] = Postemergence, 31 g ai/ha, scale 0 to 100 (0 no effect, 100 complete control)
[17] = Postemergence, 62 g ai/ha, 0 to 100 scale (0 no effect, 100 complete control)
[18] = Postemergence, 250 g ai/ha, scale 0 to 100, 0 no effect, 100 complete control, 13 to 15 d
[19] = postemergence, 125 g ai/ha, scale 0 to 100, 0 no effect, 100 complete control
[20] = Preemergence, 31 g ai/ha, scale 0 to 100, 0 is no effect, 100 is complete control
[21] = Preemergence, 62 g ai/ha, scale 0 to 100, 0 is no effect, 100 is complete control
[22] = Preemergence, 125 g ai/ha, scale 0 to 100, 0 is no effect, 100 is complete control
[23] = Preemergence, 250 g ai/ha, scale 0 to 100, 0 no effect, 100 complete control

## COC(=O)Oc1c(OC)nn(C)c(=O)c1-c1c(C)ccc2ccccc12 [Compound 136]
[1]; [14]
  Plant response rating, Blackgrass: 60
[1]; [15]
  Plant response rating, Blackgrass: 90
[2]; [14]
  Plant response rating, Galium: 100
[2]; [15]
  Plant response rating, Galium: 100
[3]; [16]
  Plant response rating, Kochia: 95
[3]; [17]
  Kochia plant response rating: 95
[3]; [18]
  Plant response rating, Kochia: 100
[3]; [19]
  Kochia plant response rating: 100
[4]; [16]
  Plant response rating, Oat, Wild: 50
[4]; [17]
  Oat, Wild plant response rating: 75
[4]; [18]
  Plant response rating, Oat, Wild: 90
[4]; [19]
  Oat, Wild plant response rating: 85
[5]; [16]
  Plant response rating, Barnyardgrass: 15
[5]; [17]
  Barnyardgrass plant response rating: 25
[5]; Postemergence, 125 g ai/ha, scale 0 to 100, 0 is no effect, 100 is complete control
  Plant response rating, Barnyardgrass: 35
[5]; [18]
  Plant response rating, Barnyardgrass: 40
[5]; [20]
  Plant response rating, Barnyardgrass: 25
[5]; [21]
  Plant response rating, Barnyardgrass: 50
[5]; [22]
  Plant response rating, Barnyardgrass: 90
[5]; [23]
  Barnyardgrass plant response rating: 95
[6]; [16]
  Plant response rating, Blackgrass: 10
[6]; [17]
  Blackgrass plant response rating: 5
[6]; [18]
  Plant response rating, Blackgrass: 45
[6]; [20]
  Plant response rating, Blackgrass: 70
[6]; [21]
  Plant response rating, Blackgrass: 80
[6]; [22]
  Plant response rating, Blackgrass: 70
[6]; [23]
  Blackgrass plant response rating: 90
[6]; [19]
  Blackgrass plant response rating: 30
[7]; [16]
  Plant response rating, Ragweed: 0
[7]; [17]
  Ragweed plant response rating: 0
[7]; [18]
  Plant response rating, Ragweed: 5
[7]; [20]
  Plant response rating, Ragweed: 95
[7]; [21]
  Plant response rating, Ragweed: 98
[7]; [22]
  Plant response rating, Ragweed: 100
[7]; [23]
  Ragweed plant response rating: 100
[7]; [19]
  Ragweed plant response rating: 0
[8]; [16]
  Plant response rating, Velvetleaf: 75
[8]; [17]
  Velvetleaf plant response rating: 95
[8]; [18]
  Plant response rating, Velvetleaf: 98
[8]; [20]
  Plant response rating, Velvetleaf: 75
[8]; [21]
  Plant response rating, Velvetleaf: 95
[8]; [22]
  Plant response rating, Velvetleaf: 100
[8]; [23]
  Velvetleaf plant response rating: 100
[8]; [19]
  Velvetleaf plant response rating: 90
[9]; [16]
  Plant response rating, Ryegrass, Italian: 5
[9]; [17]
  Ryegrass, Italian plant response rating: 10
[9]; [18]
  Plant response rating, Ryegrass, Italian: 35
[9]; [20]
  Plant response rating, Ryegrass, Italian: 50
[9]; [21]
  Plant response rating, Ryegrass, Italian: 55
[9]; [22]
  Plant response rating, Ryegrass, Italian: 85
[9]; [23]
  Ryegrass, Italian plant response rating: 90
[9]; [19]
  Ryegrass, Italian plant response rating: 30
[10]; [16]
  Plant response rating, Pigweed: 75
[10]; [17]
  Pigweed plant response rating: 80
[10]; [18]
  Plant response rating, Pigweed: 98
[10]; [20]
  Plant response rating, Pigweed: 100
[10]; [21]
  Plant response rating, Pigweed: 100
[10]; [22]
  Plant response rating, Pigweed: 100
[10]; [23]
  Pigweed plant response rating: 100
[10]; [19]
  Pigweed plant response rating: 85
[11]; [16]
  Plant response rating, Galium: 90
[11]; [17]
  Galium plant response rating: 90
[11]; [18]
  Plant response rating, Galium: 95
[11]; [20]
  Plant response rating, Galium: 90
[11]; [21]
  Plant response rating, Galium: 98
[11]; [22]
  Plant response rating, Galium: 100
[11]; [23]
  Galium plant response rating: 100
[11]; [19]
  Galium plant response rating: 90
[12]; [16]
  Plant response rating, Nutsedge, Yellow: 15
[12]; [17]
  Nutsedge, Yellow plant response rating: 55
[12]; [18]
  Plant response rating, Nutsedge, Yellow: 85
[12]; [20]
  Plant response rating, Nutsedge, Yellow: 5
[12]; [21]
  Plant response rating, Nutsedge, Yellow: 35
[12]; [22]
  Plant response rating, Nutsedge, Yellow: 70
[12]; [23]
  Nutsedge, Yellow plant response rating: 80
[12]; [19]
  Nutsedge, Yellow plant response rating: 75
[13]; [16]
  Plant response rating, Soybean: 5
[13]; [17]
  Soybean plant response rating: 10
[13]; [18]
  Plant response rating, Soybean: 15
[13]; [20]
  Plant response rating, Soybean: 10
[13]; [21]
  Plant response rating, Soybean: 10
[13]; [22]
  Plant response rating, Soybean: 10
[13]; [23]
  Soybean plant response rating: 20
[13]; [19]
  Soybean plant response rating: 10
